Each compound was assayed on up-regulation of ICAM-1 (CD54) by IFNγ in U937 human monocytic cells (assay: U937 IFNγ ICAM1 FACS Assay). Details: Homo sapiens, U-937, U937 cells stimulated with IFNγ, ICAM-1 expression by FACS; read-out: IC50, Example 44.
Type: cell-based
Method in brief: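 U937 cells in 10% FCS RPMI were preincubated 30 min at 37 °C with an 8-point, 3-fold compound dilution series in duplicate, then stimulated with IFNγ for 18–24 h. Surface ICAM-1 was stained with APC anti-ICAM-1 and read by flow cytometry as geometric mean on live-gated cells. EC50 was derived.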

IC50 [nM]	Compound
1650	NS(=O)(=O)c1cccc(Nc2ncc(F)c(Nc3ccc(Cc4ccncc4)cc3)n2)c1 [III-70, N2-(3-Aminosulfonylphenyl)-5-fluoro-N4-[4-(4-pyridinylmethyl)phenyl]-2,4-pyrimidinediamine]

Same assay, conditions: U937 cells stimulated with IFNγ; ICAM-1 expression by FACS; read-out: IC50, Example 44

Compound	IC50 [nM]
CCN(CC)CCNS(=O)(=O)c1ccc(Nc2ncc(F)c(Nc3ccc(OCc4cc(C)on4)c(C)c3)n2)cc1 [Compound I-245, N2-[4-(2-N,N-Diethylaminoethyl)aminosulfonylphenyl)-5-fluoro-N4-[3-methyl-4-(5-methylisoxazol-3-yl)methyleneoxyphenyl]-2,4-pyrimidinediamine]	4190
Cc1cc(COc2ccc(Nc3nc(Nc4cccc(S(=O)(=O)N(Cc5oc(=O)oc5C)Cc5oc(=O)oc5C)c4)ncc3F)cc2)no1 [Compound I-248, N2-{3-[N-N-Di-[(5-Methyl-1,3-dioxolene-2-one-4-yl)methylene]]aminosulfonylphenyl}-5-fluoro-N4-[4-(5-methylisoxazol-3-yl)methyleneoxyphenyl]-2,4-pyrimidinediamine]	2660
Cc1ccc(Nc2ncc(F)c(Nc3cc(C)c(OCC#N)c(C)c3)n2)cc1S(N)(=O)=O [Compound I-27, N2-(3-Aminosulfonyl-4-methyl)phenyl-N4-(4-cyanomethoxy-3,5-dimethyl)phenyl-5-fluoro-2,4-pyrimidinediamine]	534
N2-(3-Aminocarbonyl-5-methylphenyl)-5-fluoro-N2-[4-(1-ethylpyrazol-5-yl)amidophenyl)-2,4-pyrimidinediamine [II-20]	11500
Cc1nnc(COc2ccc(Nc3nc(Nc4cccc(S(N)(=O)=O)c4)ncc3F)cc2)o1 [Compound I-277, N2-(3-aminosulfonylphenyl)-5-fluoro-N4-[4-(5-methyl-1,3,4-oxadiazol-2-yl)methyleneoxyphenyl]-2,4-pyrimidinediamine]	1470
CCN(CC)CCNS(=O)(=O)c1ccc(Nc2ncc(F)c(Nc3ccc(OCc4cc(C)on4)cc3)n2)cc1 [Compound I-246, N2-[4-(2-N,N-Diethylaminoethyl)aminosulfonylphenyl)-5-fluoro-N4-[4-(5-methylisoxazol-3-yl)methyleneoxyphenyl]-2,4-pyrimidinediamine]	873
CNS(=O)(=O)c1cc(Nc2ncc(F)c(Nc3cccc(OCc4nc(C)no4)c3)n2)ccc1C [Compound I-255, 5-Fluoro-N2-[3-(N-methylaminosulfony)-4-methylphenyl]-N4-[3-(3-methyl-1,2,4-oxadiazol-5-yl)methyleneoxyphenyl]-2,4-pyrimidinediamine]	5520
Cc1noc(COc2ccc(Nc3nc(Nc4ccc(F)c(S(N)(=O)=O)c4)ncc3F)cc2)n1 [Compound I-266, N2-(3-Aminosulfonyl-4-fluorophenyl)-5-fluoro-N4-[4-(3-methyl-1,2,4-oxadiazol-5-yl)methyleneoxyphenyl]-2,4-pyrimidinediamine]	824
CNS(=O)(=O)c1cc(Nc2ncc(F)c(Nc3ccc(OCc4csc(C)n4)cc3)n2)ccc1C [Compound I-282, 5-Fluoro-N2-[3-(N-methylaminosulfony)-4-methylphenyl]-N4-[4-(2-methylthiazol-4-yl)methyleneoxyphenyl]-2,4-pyrimidinediamine]	3100
CNS(=O)(=O)c1cc(Nc2ncc(F)c(Nc3ccc(OCc4cc(C)on4)cc3)n2)ccc1C [Compound I-235, 5-Fluoro-N2-[3-(N-methyl)aminosulfonyl-4-methylphenyl]-N4-[4-(5-methylisoxazol-3-yl)methyleneoxyphenyl]-2,4-pyrimidinediamine]	2560
CCN(CC)CCNS(=O)(=O)c1cccc(Nc2ncc(F)c(Nc3ccc(OCc4cc(C)on4)cc3)n2)c1 [Compound I-241, N2-[3-(2-N,N-Diethylaminoethyl)aminosulfonylphenyl)-5-fluoro-N4-[4-(5-methylisoxazol-3-yl)methyleneoxyphenyl]-2,4-pyrimidinediamine]	2870
Cc1cc(COc2ccc(Nc3nc(Nc4cc(Cl)c(C)c(S(N)(=O)=O)c4)ncc3F)cc2C)no1 [Compound I-216, N2-(3-Aminosulfonyl-5-chloro-4-methylphenyl)-5-fluoro-N4-[3-methyl-4-(5-methylisoxazol-3-yl)methyleneoxyphenyl]-2,4-pyrimidinediamine]	1570
Cc1cc(COc2ccc(Nc3nc(Nc4ccc(F)c(S(N)(=O)=O)c4)ncc3F)cc2C)no1 [Compound I-237, N2-(3-Aminosulfonyl-4-fluorophenyl)-5-fluoro-N4-[3methyl-4-(5-methylisoxazol-3-yl)methyleneoxyphenyl]-2,4-pyrimidinediamine]	3580
Cc1ccc(Nc2ncc(F)c(Nc3ccc(OC4CCCN(C)C4)cc3)n2)cc1S(N)(=O)=O (racemic) [II-4, Racemic N2-(3-aminosulfonyl-4-methylphenyl)-5-fluoro-N4-{4-[(1-methylpiperidin-3-yl)oxy]phenyl}-2,4-pyrimidinediamine]	3510
Cc1nc(COc2ccc(Nc3nc(Nc4ccc(C)c(S(N)(=O)=O)c4)ncc3F)cc2)cs1 [Compound I-280, N2-(3-Aminosulfonyl-4-methylphenyl)-5-fluoro-N4-[4-(2-methylthiazol-4-yl)methyleneoxyphenyl]-2,4-pyrimidinediamine]	1460
N2-[3-Aminosulfonyl-4-(4-methylpiperazin-1-yl)phenyl]-5-fluoro-N4-[2-fluoro-4-(5-methylisoxazol-3-yl)methyleneoxyphenyl]-2,4-pyrimidinediamine [Compound I-251]	1090
Cc1noc(COc2ccc(Nc3nc(Nc4ccc(S(N)(=O)=O)cc4)ncc3F)cc2)n1 [Compound I-268, N2-(4-Aminosulfonylphenyl)-5-fluoro-N4-(4-[3-methyl-1,2,4-oxadiazol-5-yl]methyleneoxyphenyl)-2,4-pyrimidinediamine]	219
Cc1cc(Nc2nc(Nc3ccc(C)c(S(N)(=O)=O)c3)ncc2F)ccc1OCC#N [Compound I-24, N2-(3-Aminosulfonyl-4-methyl)phenyl-N4-(4-cyanomethoxy-3-methyl)phenyl-5-fluoro-2,4-pyrimidinediamine]	1040
CN1CCC(Oc2ccc(Nc3nc(Nc4cccc(S(N)(=O)=O)c4)ncc3F)cc2)C1 (stereo not drawn) [II-9, N2-(3-Aminosulfonylphenyl)-5-fluoro-N4-(N-methylpyrrolidin-3-yloxyphenyl)-2,4-pyrimidinediamine]	2720
N#CCOc1ccc(Nc2nc(Nc3ccc(F)c(S(N)(=O)=O)c3)ncc2F)cc1 [Compound I-33, N2-(3-Aminosulfonyl-4-fluoro)phenyl-N4-(4-cyanomethoxy)phenyl-5-fluoro-2,4-pyrimidinediamine]	897
Cc1cc(Nc2nc(Nc3cccc(S(N)(=O)=O)c3)ncc2F)ccc1OCC#N [Compound I-23, N2-(3-Aminosulfonyl)phenyl-N4-(4-cyanomethoxy-3-methyl)phenyl-5-fluoro-2,4-pyrimidinediamine]	455
Cc1cc(COc2ccc(Nc3nc(Nc4cc(C)c(F)c(S(N)(=O)=O)c4)ncc3F)cc2F)no1 [Compound I-224, N2-(3-Aminosulfonyl-4-fluoro-5-methylphenyl)-5-fluoro-N4-[3-fluoro-4-(5-methylisoxazol-3-yl)methyleneoxyphenyl]-2,4-pyrimidinediamine]	494
Cc1cc(COc2ccc(Nc3nc(Nc4ccc(C)c(S(N)(=O)=O)c4)ncc3F)cc2F)no1 [Compound I-222, N2-(3-Aminosulfonyl-4-methylphenyl)-5-fluoro-N4-[3-fluoro-4-(5-methylisoxazol-3-yl)methyleneoxyphenyl]-2,4-pyrimidinediamine]	840
Cc1nnc(COc2ccc(Nc3nc(Nc4ccc(F)c(S(N)(=O)=O)c4)ncc3F)cc2)o1 [Compound I-278, N2-(3-Aminosulfonyl-4-fluorophenyl)-5-fluoro-N4-[4-(5-methyl-1,3,4-oxadiazol-2-yl)methyleneoxyphenyl]-2,4-pyrimidinediamine]	2270

Further lines, results first:

IC50 [nM]	Compound
1700	N#CCCc1ccc(Nc2nc(Nc3cccc(S(N)(=O)=O)c3)ncc2F)cc1C(F)(F)F [III-31, N4-(4-Cyanoethylene-3-trifluoromethylphenyl)-5-fluoro-N2-(3-aminosulfonylphenyl)-2,4-pyrimidinediamine]
2250	N#CCc1ccc(Nc2nc(Nc3ccc(Cl)c(S(N)(=O)=O)c3)ncc2F)cc1 [III-8, N2-(3-Aminosulfonyl-4-chloro)phenyl-N4-(4-cyanomethyl)phenyl-5-fluoro-2,4-pyrimidinediamine]
1120	Cc1ccc(Nc2ncc(F)c(Nc3cccc(CNC(=O)C4CC4)c3)n2)cc1S(N)(=O)=O [III-40, N2-(3-aminosulfonyl-4-methyl)phenyl-N4-(3-cyclopropylcarbonylaminomethyl)phenyl-5-fluoro-2,4-pyrimidinediamine]
3520	N#CCc1ccc(Nc2nc(Nc3ccc(F)c(S(N)(=O)=O)c3)ncc2F)cc1 [III-10, N2-(3-Aminosulfonyl-4-fluoro)phenyl-N4-(4-cyanomethyl)phenyl-5-fluoro-2,4-pyrimidinediamine]
257	Cc1cnc(Nc2ccc(S(N)(=O)=O)cc2)nc1Nc1ccc(CCC#N)cc1 [III-27, N2-(4-Aminosulfonylphenyl)-N4-(4-cyanoethylenephenyl)-5-methyl-2,4-pyrimidinediamine]
1440	NS(=O)(=O)c1cccc(Nc2ncc(F)c(Nc3cccc(CNC(=O)C4CC4)c3)n2)c1 [III-39, N2-(3-aminosulfonyl)phenyl-N4-(3-cyclopropylcarbonylaminomethyl)phenyl-5-fluoro-2,4-pyrimidinediamine]
168	Cc1ccc(Nc2ncc(C)c(Nc3ccc(CCC#N)cc3)n2)cc1S(N)(=O)=O [III-11]
553	Cc1ccc(Nc2ncc(F)c(Nc3ccc(CCC#N)cc3)n2)cc1S(N)(=O)=O [III-15, N2-(3-Aminosulfonyl-4-methylphenyl)-N4-[4-(cyanoethylene)phenyl]-5-fluoro-2,4-pyrimidinediamine]

Reference: US11827628B2, “Compositions and methods for inhibition of the JAK pathway” (Rigel Pharmaceuticals, Inc., priority 2005, dated 2023)
